In one data set the test system is Hs 294T tumors. As to the kind of experiment: Melanoma tumor growth in nude mice. It counts as in vivo. Particulars: 75 mg/kg orally once daily, 21 days, vs vehicle.
Data set [1] can be described thus: Body weight and tolerability in treated tumor-bearing mice. It counts as in vivo.
Data set [2] deals with SK-Mel-5 cells. Description: TUNEL assay of cultured cells by flow cytometry. The settings on record: 36 h. It counts as cell-based, human. As for the experimental part:
(§1) FIGS. 4A-4H. […] Paraffin-embedded tumor tissues were subjected to H&E staining (FIGS. 4C & D) and DeadEnd Fluorometric TUNEL-assay for detection of apoptosis (FIGS. 4E & F). The TUNEL-positive cells are visualized in green fluorescence in a red (Propidium Iodide) background by fluorescence microscopy. […] After 36 h incubation, cells were collected and fixed with 1% formaldehyde and 70% ice-cold ethanol. The apoptotic cells were examined using TUNEL-assay and analyzed by flow cytometry through measuring fluorescein-12-dUTP at 520 nm. The apoptotic rate is indicated in each box. Data shown are represented one of three independent experiments. […] Cells were fixed and stained with Propidium iodide. Cell fluorescence was measured by flow cytometry and the data were analyzed using DNA content histogram deconvolution software (Multicycle from Phoenix Flow Systems). The percentage of apoptotic cells with fragmented DNA (PI intensity sub-G0/G1) is indicated at each time point. The experiments were repeated twice, in duplicates for each point (total n=4).
(§2) In melanoma, constitutive activation of NF-κB confers tumor survival capacity and escape from apoptosis (Richmond, 2002). […] Apoptotic cells were labeled using DeadEnd Fluorometric TUNEL reagent and analyzed by flow cytometry. […] Thirty-six hours after transfection, cells were collected, labeled with TUNEL reagent and analyzed by flow cytometry. […] Induction of DNA fragmentation, a hallmark of apoptosis, was evaluated by staining DNA with ethidium bromide followed by quantization by FACS analysis.
For orientation: Flow cytometry measures light scatter and fluorescence of single cells or particles in a stream.

For a further data set, the system named is melanoma tumor. Description: H&E and TUNEL staining of melanoma tumor sections. The class given is in vivo, mice. As for the experimental part: as §1, with “The percentage of apoptotic cells with fragmented DNA (PI intensity sub-G0/G1) is indicated at each time point. The experiments were repeated twice, in duplicates for each point (total n=4).” left out
as §2

In data set [3] the test system is SK-Mel-5 cells. Description: Nuclear apoptosis (DNA fragmentation) by flow cytometry. The class given is cell-based, human. Particulars: for rate of apoptotic cells: 10 μM, 24 h. As for the experimental part:
as §1

For data set [4], the system named is SK-Mel-5 cells. Description: Mitochondrial membrane potential (Δψm), DiOC6 and FACS. The settings on record: SK-Mel-5, 10 μM. The class given is cell-based, human. As for the experimental part: (§3) FIGS. 5A-5E. […] (FIG. 5A) Redistribution of Bcl-2 and Bax in mitochondria. […] Subcellular mitochondria and cytoplasm were prepared and subjected to Western blot analysis for Bcl-2 and Bax. (FIG. 5B) Dissipation of mitochondrial Δψm. […] After exposure, mitochondria were isolated and incubated with 80 μM 3,3′dihexyloxacarbocyanine iodide (DiOC6) at 37° C. for 15 min. Δψm was determined by FACS analysis using 484/530 nm filters within 10 min while gating the forward and sideward scatters on intact mitochondria (FIG. 5C). (FIG. 5D) Release of cytochrome-C and AIF. […] Subcellular extracts were prepared and subjected to Western blot analysis for cytochrome-C and AIF. […] The supernatant was assessed for cytochrome-c release. […]
For quantification of cell death, DNA content was analyzed on a FACScan (Becton Dickinson, San Jose, Calif.). […] Cell fluorescence was measured by flow cytometry with 488 nm excitation and 620 nm emission filters and data were analyzed using DNA content histogram deconvolution software (Multicycle, Phoenix Flow Systems). […] ROS were determined by FACS analysis with 488 nm excitation and 585 emission filters.
Mitochondria play a crucial role in the regulation of programmed cell death (Zamzami et al., 1995a; 1995b; 1996a; 1996b). […] The change in mitochondrial membrane potential (Δψm) was determined by FACS analysis after the mitochondria were stained with DiOC6.

The test system of data set [5] is SK-Mel-5 cells. Description: Western blot / confocal analysis of apoptotic proteins in subcellular fractions. The settings on record: 10 μM. The class given is cell-based, human. Background: In western blotting, separated proteins are transferred to a membrane and probed.
Protocol: Subcellular mitochondria and cytoplasm were prepared and subjected to Western blot analysis for Bcl-2 and Bax. […] After exposure, mitochondria were isolated and incubated with 80 μM 3,3′dihexyloxacarbocyanine iodide (DiOC6) at 37° C. for 15 min. Δψm was determined by FACS analysis using 484/530 nm filters within 10 min while gating the forward and sideward scatters on intact mitochondria (FIG. 5C). […] Subcellular extracts were prepared and subjected to Western blot analysis for cytochrome-C and AIF. […] The supernatant was assessed for cytochrome-c release. 200 μM Ca^2+ was used as a positive control.
The cellular caspase-3 activity in samples was detected as described in Materials and Methods. […] Cells were fixed and stained with propidium iodide staining as described in FIG. 4H. The percentage of cell death was measured with flow cytometry. […] Cytosol was extracted and subjected to Western blot analysis for AIF, cytochrome-c (cyto-C) and actin. Actin was used as a loading control protein. […] Ref-1 was used as a nuclear marker protein. All data shown here were from three independent experiments. […] SK-Mel-5 cells were exposed to 10 μM BMS and/or pan-caspase inhibitor (Z-VAD-fmk, 50 μM).
Proteins from cell extracts were separated by 12% SDS-PAGE and electrophoretically transferred to nitrocellulose membranes. Nonspecific binding was blocked with 5% milk in TBST buffer (4 mM Tris base, 100 mM NaCl, pH 7.5, 0.05% Tween), incubated with the indicated primary antibodies with a dilution of 1:1000 at room temperature for 2 h or 4° C. for overnight and then with horseradish peroxidase-conjugated secondary antibody for 1 h. Blots were visualized by enhanced chemiluminescence assay.
The Mitochondria Isolation Kit (Pierce, Rockford, Ill.) was used for isolation of mitochondria from cultured melanoma cells according to the manufacture's instruction for the Reagent-based method. Briefly, cells (2×10^7) were collected, washed with PBS buffer and resuspended in 0.8 ml of Reagent A on ice for 2 min. 10 μl of Reagent B was added and samples were kept on ice, with vortexing very minute for 5 min. After addition of 0.8 ml of Reagent C, the mixture was centrifuged at 700×g for 10 min to remove the cell debris and nuclei. The supernatant was then centrifuged at 3,000×g for 15 min. The pellet (mitochondria) was washed with Reagent C. The purity of mitochondria was determined by Western blotting with β-actin, where β-actin negative preparation were fully to be pure. The supernatant (cytosolic fraction) was further cleared by centrifugation at 12,000×g for 15 min.
Cells were incubated with the anti-AIF polyclonal antibody for 2 h. Cells were washed twice and incubated with the secondary antibody conjugated with FITC for 1 h.
The test system of data set [6] is mitochondria isolated from SK-Mel-5. As to the kind of experiment: Cytochrome-c release from isolated mitochondria. The settings on record: 10 μM, 4° C., 30 min. Also noted: species or system human. As for the experimental part:
as §3
The Mitochondria Isolation Kit (Pierce, Rockford, Ill.) was used for isolation of mitochondria from cultured melanoma cells according to the manufacture's instruction for the Reagent-based method. […] The purity of mitochondria was determined by Western blotting with β-actin, where β-actin negative preparation were fully to be pure. […]
Mitochondria play a crucial role in the regulation of programmed cell death (Zamzami et al., 1995a; 1995b; 1996a; 1996b). […] To investigate alteration of the apoptotic proteins in mitochondria during BMS-345541-induced apoptosis, the ratio of Bcl-2 and Bax distributed in mitochondria was analyzed in SK-Mel-5 cells using Western blot. […]

In a further data set the test system is caspase-3. As to the kind of experiment: Caspase-3 activity assay (Ac-DEVD-pNA) in cytosol extracts. The class given is cell-based, human.
Data set [7] relates to 15 other kinases including JNK, or mitogen-activated protein kinase-activated protein kinase 2. Particulars: cited from earlier work.

For the molecule `Cc1ccc2nc(NCCN)c3ncc(C)n3c2c1.Cl` [BMS-345541, 4(2′-aminoethyl)amino-1,8-dimethylimidazo(1,2-a)quinoxaline], in the data set with Hs 294T tumors, the “inhibition of tumor growth” value is recorded as 67±3.4%. Besides, the entries for the “average loss of body weight” value in data set [1] (10 mg/kg orally once daily), in data set [1] (25 mg/kg orally once daily) and in data set [1] (75 mg/kg orally once daily) were 5%, 9% and 14%, respectively. Moreover, the tolerability in mice entry in data set [1] (oral, once daily, 21 days) is reported as “well tolerated”. Besides, the “increase in apoptotic cells vs vehicle (TUNEL)” value is 2 fold with SK-Mel-5 cells [2] (SK-Mel-5, 1.0 μM); 3.3 fold in the data set on SK-Mel-5 cells [2] (SK-Mel-5, 10 μM); 4 fold with SK-Mel-5 cells [2] (SK-Mel-5, 100 μM). Moreover, the “nuclear apoptosis in tumor sections (H&E, TUNEL)” value with melanoma tumor (25 mg/kg daily) is “obvious nuclear condensation and DNA fragment staining”. The “TUNEL staining of tumor sections” value with melanoma tumor (75 mg/kg) is “TUNEL staining appeared extensively over the tumor sections”. Besides, the “rate of apoptotic cells” value turned out to be 10.3±3.8% in the data set with SK-Mel-5 cells [3] (AIF siRNA-transfected cells) and 24.3±6.8% in the data set on SK-Mel-5 cells [3] (control siRNA-transfected cells). Moreover, the “induction of DNA fragmentation” value in the data set with SK-Mel-5 cells [3] (SK-Mel-5, 10 μM, 0-48 h (FIG. 4H)) is “time-dependent”. Moreover, the results for the “loss of mitochondrial membrane potential” value with SK-Mel-5 cells [4] (24 h) and with SK-Mel-5 cells [4] (48 h) were 16±1.5% and 87±5.4%, respectively. In addition, the “time of cytochrome-c release into cytosol” value with SK-Mel-5 cells [5] is on record as 14 h. Moreover, in the data set with SK-Mel-5 cells [5], the “time of initiation of AIF release into cytosol” value was found to be 4 h. The “release of pro-apoptotic molecules from mitochondria” value with SK-Mel-5 cells [5] (24 h, Western blot) is “mitochondrial cytochrome-c release into the cytoplasm and AIF nuclear translocation”. In addition, in data set [6], the “direct action on isolated mitochondria (cytochrome-c release into supernatant)” value is listed as “no direct action”. Also, the “specific caspase-3 activity” value in the data set with caspase-3 (SK-Mel-5, 10 μM BMS-345541, 36 h) is 1.6±0.092 pmol/min/μg protein; in the data set with caspase-3 (SK-Mel-5, 10 μM BMS-345541 in combination with 50 μM Z-VAD-fmk, 36 h) it was 0.44±0.035 pmol/min/μg protein. For the same molecule, the “effect on 15 other kinases” value in data set [7] is on record as “failing to affect”.

Values taken from patent publication US20060025419A1, “Imidazoquinoxaline compound for the treatment of melanoma” (priority 2004, published 2006).
